Results on three compounds are retold here after ChEMBL document CHEMBL4043095, “Cyclic MOG35-55 ameliorates clinical and neuropathological features of experimental autoimmune encephalomyelitis” (2017).

Active and inactive are the calls of the source. No cut-off for these calls is given here. Residues, ends and D or L forms follow the SMILES beside them.

For test [1], the target named is HLA-DRB2 protein (Homo sapiens) (UniProt Q30155). The test is described as follows: Inhibition of AMCA-labeled MBP (83 to 99) binding to HLA-DR2b […] in human HTC-Lan B cells at 20 fold excess after 48 hrs by fluorescence spectrophotometric method. The class given is cell-based.
Chain of HLA-DRB2 protein (Homo sapiens) (Q30155 as listed by the source): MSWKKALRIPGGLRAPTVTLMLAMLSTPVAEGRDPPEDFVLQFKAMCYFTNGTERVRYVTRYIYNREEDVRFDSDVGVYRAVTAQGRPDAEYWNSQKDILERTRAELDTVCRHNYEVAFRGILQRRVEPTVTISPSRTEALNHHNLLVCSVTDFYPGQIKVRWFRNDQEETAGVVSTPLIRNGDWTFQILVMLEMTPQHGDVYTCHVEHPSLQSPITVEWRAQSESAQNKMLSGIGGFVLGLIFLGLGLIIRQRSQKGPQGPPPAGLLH
Test [2] concerns Mus musculus. The test is described as follows: Immunomodulatory activity in C57BL/6 mouse subcutaneously immunized using 1:1 mixture of linear and cyclic MOG35 to 55 peptide in presence of complete Freunds adjuvant (CFA) followed by intraperitoneal pertussis toxin assessed as reduction in overall disease burden measured 46 days post disease induction. The class given is functional.

The subject of test [3] is Mus musculus. In words: Immunomodulatory activity in C57BL/6 mouse subcutaneously immunized using 1:1 mixture of linear and cyclic MOG35 to 55 peptide in presence of complete Freunds adjuvant (CFA) followed by intraperitoneal pertussis toxin assessed as reduction in overall disease burden measured 16 days post disease induction. The class given is functional.
For test [4], the system named is Mus musculus. In words: Antiinflammatory activity in C57BL/6 mouse EAE model subcutaneously immunized using 1:1 mixture of linear and cyclic MOG35 to 55 peptide in presence of complete Freunds adjuvant (CFA) followed by intraperitoneal pertussis toxin assessed as reduction in size of inflammatory foci measured 46 days post disease induction by Bielschowsky silver impregnation staining method combined with haematoxylin staining-based assay. The class given is functional.

Test [5] concerns Mus musculus. The test is described as follows: Antiinflammatory activity in C57BL/6 mouse EAE model subcutaneously immunized using 1:1 mixture of linear and cyclic MOG35 to 55 peptide in presence of complete Freunds adjuvant (CFA) followed by intraperitoneal pertussis toxin assessed as reduction in size of inflammatory foci measured 16 days post disease induction by Bielschowsky silver impregnation staining method combined with haematoxylin staining-based assay. The class given is functional.

Test [6] deals with Mus musculus. The test is described as follows: Antiinflammatory activity in C57BL/6 mouse EAE model subcutaneously immunized using 1:1 mixture of linear and cyclic MOG35 to 55 peptide in presence of complete Freunds adjuvant (CFA) followed by intraperitoneal pertussis toxin assessed as reduction in size of inflammatory foci measured 46 days post disease induction by Luxol fast blue (LFB) staining counterstained with Nuclear fast Red staining-based assay. The class given is functional.

The test system of test [7] is Mus musculus. The test is described as follows: Antiinflammatory activity in C57BL/6 mouse EAE model subcutaneously immunized using 1:1 mixture of linear and cyclic MOG35 to 55 peptide in presence of complete Freunds adjuvant (CFA) followed by intraperitoneal pertussis toxin assessed as reduction in size of inflammatory foci measured 16 days post disease induction by Luxol fast blue (LFB) staining counterstained with Nuclear fast Red staining-based assay. The class given is functional.

Test [8] relates to Mus musculus. The test is described as follows: Antiinflammatory activity in C57BL/6 mouse EAE model subcutaneously immunized using 1:1 mixture of linear and cyclic MOG35 to 55 peptide in presence of complete Freunds adjuvant (CFA) followed by intraperitoneal pertussis toxin assessed as protection against axonal injury by measuring normal cell population in spinal cord measured 16 days post disease induction (reference value: 4.3%). The class given is functional.

The subject of test [9] is Mus musculus. The test is described as follows: Antiinflammatory activity in C57BL/6 mouse EAE model subcutaneously immunized using 1:1 mixture of linear and cyclic MOG35 to 55 peptide in presence of complete Freunds adjuvant (CFA) followed by intraperitoneal pertussis toxin assessed as axonal injury in spinal cord measured 16 days post disease induction (reference value: 15.2 to 42.4%). The class given is functional.

The subject of test [10] is Mus musculus. In words: Antiinflammatory activity in C57BL/6 mouse EAE model subcutaneously immunized using 1:1 mixture of linear and cyclic MOG35 to 55 peptide in presence of complete Freunds adjuvant (CFA) followed by intraperitoneal pertussis toxin assessed as axonal injury in spinal cord measured 46 days post disease induction (reference value: 0.7 to 36%). The class given is functional.

Test [11] deals with Mus musculus. The test is described as follows: Antiinflammatory activity in C57BL/6 mouse EAE model subcutaneously immunized using 1:1 mixture of linear and cyclic MOG35 to 55 peptide in presence of complete Freunds adjuvant (CFA) followed by intraperitoneal pertussis toxin assessed as protection against axonal loss by measuring normal cell population in spinal cord measured 16 days post disease induction (reference value: 4.3%). The class given is functional.

Test [12] has as its system Mus musculus. In words: Antiinflammatory activity in C57BL/6 mouse EAE model subcutaneously immunized using 1:1 mixture of linear and cyclic MOG35 to 55 peptide in presence of complete Freunds adjuvant (CFA) followed by intraperitoneal pertussis toxin assessed as axonal loss in spinal cord measured 16 days post disease induction (reference value: 13 to 30.4%). The class given is functional.

Test [13] has as its system Mus musculus. The test is described as follows: Antiinflammatory activity in C57BL/6 mouse EAE model subcutaneously immunized using 1:1 mixture of linear and cyclic MOG35 to 55 peptide in presence of complete Freunds adjuvant (CFA) followed by intraperitoneal pertussis toxin assessed as reduction demyelinating area measured 46 days post disease induction by Luxol fast blue (LFB) staining counterstained with Nuclear fast Red staining-based assay. The class given is functional.

For test [14], the system named is Mus musculus. The test is described as follows: Antiinflammatory activity in C57BL/6 mouse EAE model subcutaneously immunized using 1:1 mixture of linear and cyclic MOG35 to 55 peptide in presence of complete Freunds adjuvant (CFA) followed by intraperitoneal pertussis toxin assessed as reduction demyelinating area measured 16 days post disease induction by Luxol fast blue (LFB) staining counterstained with Nuclear fast Red staining-based assay. The class given is functional.

Test [15] relates to Mus musculus. In words: Antiinflammatory activity in C57BL/6 mouse EAE model subcutaneously immunized using 1:1 mixture of linear and cyclic MOG35 to 55 peptide in presence of complete Freunds adjuvant (CFA) followed by intraperitoneal pertussis toxin assessed as reduction demyelinating area measured 46 days post disease induction by Bielschowsky silver impregnation staining method combined with haematoxylin staining-based assay. The class given is functional.

In test [16] the test system is Mus musculus. In words: Antiinflammatory activity in C57BL/6 mouse EAE model subcutaneously immunized using 1:1 mixture of linear and cyclic MOG35 to 55 peptide in presence of complete Freunds adjuvant (CFA) followed by intraperitoneal pertussis toxin assessed as reduction demyelinating area measured 16 days post disease induction by Bielschowsky silver impregnation staining method combined with haematoxylin staining-based assay. The class given is functional.

Test [17] concerns Mus musculus. The test is described as follows: Antiinflammatory activity in C57BL/6 mouse EAE model subcutaneously immunized using 1:1 mixture of linear and cyclic MOG35 to 55 peptide in presence of complete Freunds adjuvant (CFA) followed by intraperitoneal pertussis toxin assessed as protection against axonal injury by measuring normal cell population in spinal cord measured 46 days post disease induction (reference value: 32%). The class given is functional.

Test [18] concerns Mus musculus. The test is described as follows: Antiinflammatory activity in C57BL/6 mouse EAE model subcutaneously immunized using 1:1 mixture of linear and cyclic MOG35 to 55 peptide in presence of complete Freunds adjuvant (CFA) followed by intraperitoneal pertussis toxin assessed as protection against axonal loss by measuring normal cell population in spinal cord measured 46 days post disease induction (reference value: 27.3%). The class given is functional.

Test [19] concerns Mus musculus. The test is described as follows: Antiinflammatory activity in C57BL/6 mouse EAE model subcutaneously immunized using 1:1 mixture of linear and cyclic MOG35 to 55 peptide in presence of complete Freunds adjuvant (CFA) followed by intraperitoneal pertussis toxin assessed as axonal loss in spinal cord measured 46 days post disease induction (reference value: 4.7 to 26%). The class given is functional.

In test [20] the target is HLA-DRB2 protein (Homo sapiens) (UniProt Q30155). In words: Inhibition of AMCA-labeled MBP (83 to 99) binding to HLA-DR2b […] in human HTC-Lan B cells at 50 fold excess after 48 hrs by fluorescence spectrophotometric method. The class given is cell-based.
Test [21] shares this target. In words: Inhibition of AMCA-labeled MBP (83 to 99) binding to HLA-DR2b […] in human HTC-Lan B cells at 10 fold excess after 48 hrs by fluorescence spectrophotometric method. The class given is cell-based.

On to `CSCC[C@H](N)C(=O)N[C@@H](CCC(=O)O)C(=O)N[C@H](C(=O)NCC(=O)N[C@@H](Cc1c[nH]c2ccccc12)C(=O)N[C@@H](Cc1ccc(O)cc1)C(=O)N[C@@H](CCCNC(=N)N)C(=O)N[C@@H](CO)C(=O)N1CCC[C@H]1C(=O)N[C@@H](Cc1ccccc1)C(=O)N[C@@H](CO)C(=O)N[C@@H](CCCNC(=N)N)C(=O)N[C@H](C(=O)N[C@H](C(=O)N[C@@H](Cc1cnc[nH]1)C(=O)N[C@@H](CC(C)C)C(=O)N[C@@H](Cc1ccc(O)cc1)C(=O)N[C@@H](CCCNC(=N)N)C(=O)N[C@@H](CC(N)=O)C(=O)NCC(=O)N[C@@H](CCCCN)C(=O)O)C(C)C)C(C)C)C(C)C` (H-MEVGWYRSPFSRVVHLYRNGK-OH), for which the inhibition entry in [1] is “Active”.

As for `CSCC[C@@H]1NC(=O)[C@H](CCCCN)NC(=O)CNC(=O)[C@H](CC(N)=O)NC(=O)[C@H](CCCNC(=N)N)NC(=O)[C@H](Cc2ccc(O)cc2)NC(=O)[C@H](CC(C)C)NC(=O)[C@H](Cc2cnc[nH]2)NC(=O)[C@H](C(C)C)NC(=O)[C@H](C(C)C)NC(=O)[C@H](CCCNC(=N)N)NC(=O)[C@H](CO)NC(=O)[C@H](Cc2ccccc2)NC(=O)[C@@H]2CCCN2C(=O)[C@H](CO)NC(=O)[C@H](CCCNC(=N)N)NC(=O)[C@H](Cc2ccc(O)cc2)NC(=O)[C@H](Cc2c[nH]c3ccccc23)NC(=O)CNC(=O)[C@H](C(C)C)NC(=O)[C@H](CCC(=O)O)NC1=O` (cyclo(EVGWYRSPFSRVVHLYRNGKM)), the outcome in the test on Mus musculus [2], in the test with Mus musculus [3], in the test with Mus musculus [4], in the test with Mus musculus [5], in the test with Mus musculus [6] and in the test with Mus musculus [7] was Active. Further, the result in the test with Mus musculus [13], in the test with Mus musculus [14], in the test with Mus musculus [15] and in the test with Mus musculus [16] was Active. For the same compound, the Activity in the test on Mus musculus [8] was 37.1%; in the test on Mus musculus [9], 0.9 - 40.5%; in the test on Mus musculus [10] it was 0.7 - 26.5%; in the test with Mus musculus [11], 36.2%; in the test on Mus musculus [12] it was 1.7 - 27.6%; in the test on Mus musculus [17] it was 48.3%. The Activity is listed as 45.6% in the test with Mus musculus [18] and 2 - 27.2% in the test with Mus musculus [19]. The inhibition result in [20] is “Active”.

For `CC[C@H](C)[C@H](NC(=O)[C@H](CC(N)=O)NC(=O)[C@H](CCCCN)NC(=O)[C@H](Cc1ccccc1)NC(=O)[C@H](Cc1ccccc1)NC(=O)[C@H](Cc1cnc[nH]1)NC(=O)[C@@H](NC(=O)[C@@H](NC(=O)[C@@H]1CCCN1C(=O)[C@H](CC(N)=O)NC(=O)[C@@H](N)CCC(=O)O)C(C)C)C(C)C)C(=O)N[C@H](C(=O)N[C@H](C(=O)N1CCC[C@H]1C(=O)N[C@@H](CCCNC(=N)N)C(=O)N[C@H](C(=O)N1CCC[C@H]1C(=O)O)[C@@H](C)O)[C@@H](C)O)C(C)C`, the inhibition result in [21] is “Active”.
